Values quoted from earlier work, collected in patent publication US6486118B1, “Detergent compositions” (Unilever Home & Personal Care USA, division of Conopco, Inc., priority 1999, dated 2002).
Like-named read-outs stand apart in the source and are kept apart here.

[1] = other common materials, by contrast, at 20° C.

Water Solubility (g/100 g) (highly water-soluble materials, grams of solid to form a saturated solution in 100 grams of water at 20° C.) | SMILES | Water Solubility (g/100 g) [1] [g/100 g]
– | O=BO[O-].[Na+] [Sodium perborate anhydrous] | 3.7
– | O=P(O)(O)OP(=O)(O)OP(=O)(O)O [Sodium tripolyphosphate anhydrous] | 15
>100 | NC(N)=O [Urea] | –
